These results are taken from US20260137698A1, “CYCLIN-DEPENDENT KINASE 7 INHIBITORS” (JOINT STOCK COMPANY «BIOCAD», priority 2022, published 2026).

For data set [1], the target named is CDK7/Cyclin H/MNAT1 (Homo sapiens, UniProt P50613). Briefly: Inhibition of CDK7/Cyclin H/MNAT1 kinase activity (ADP-Glo). It counts as biochemical. The method, boiled down: (§1)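 ADP-Glo luminescence quantified ATP consumption after a 40-60 minute, 25° C. reaction with ATP plus CDKtide, Histone H1 or PDKtide, following a 10-minute compound–kinase preincubation in DTT-supplemented kinase buffer A. Compounds spanned 11 concentrations from 50 μM in 4-fold dilutions; IC50 fitted to a four-parameter model.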
A general note: ADP-Glo turns the ADP formed in a reaction into a luminescent signal.

Data set [2] has as its target CDK2/Cyclin A (Homo sapiens, UniProt P24941). Briefly: Inhibition of CDK2/Cyclin A kinase activity (ADP-Glo). It counts as biochemical. The method, boiled down:
as §1

Data set [3] has as its target CDK9/Cyclin K (Homo sapiens, UniProt P50750). Nature of the data set: Inhibition of CDK9/Cyclin K kinase activity (ADP-Glo). It counts as biochemical. In short, it runs like this: as §1
The target in data set [4] is CDK13/Cyclin K (Homo sapiens, UniProt Q14004). Nature of the data set: Inhibition of CDK13/Cyclin K kinase activity (ADP-Glo). It counts as biochemical. Here is the method: Measurements were carried out in a 5 μl reaction volume using a 384-well plate (Corning Inc., order no. 4513). The analyzed substances were titrated from 50 μM in increments of 4 at 11 concentration points in a normal strength kinase buffer A (Thermo Fisher Scientific Inc, cat. no. PV3189) supplemented with DTT (Sigma, orde. no. 646563-10X.5ML) and prepared with water (Panreac, order no. 701074). Kinase was diluted in an analogous buffer, mixed with test compounds in plate wells and preincubated for 10 minutes at 25° C. Following incubation, a mixture of reaction substrate (CDKtide (SignalChem, order no. C06-58) or Histone H1 (SignalChem, order no. H10-54N) or PDKtide (SignalChem, order no. P10-58) and ATP (SignalChem, order no. V915B) prepared on a normal strength kinase buffer A was added. 1% solution of dimethyl sulfoxide (DMSO) (Sigma-Aldrich, order no. D2438) in the reaction volume was used as a negative control. The final concentrations of all reaction components are shown in Table 5. The plate was centrifuged at 400 rcf (Eppendorf, 5804 R) for 1 minute and incubated for 40-60 minutes at 25° C. The amount of ATP consumed in the kinase reaction was then measured using the ADP-Glo™ detection system. Luminescence signal was measured using Spark 20M tablet multifunction reader (Tecan Group Ltd, Switzerland). IC50 value was calculated using Magellan 7.2 (Tecan Group Ltd, Switzerland) by approximating experimental points by four-parameter model with the optimization by Levenberg-Marquardt:
[formula] • where A is the upper asymptote; D is the lower asymptote; C is IC50, half-maximal inhibitory concentration of kinase, nM; B is the curvature (slope).

For data set [5], the system named is MDA-MB-468 (triple negative breast cancer). Briefly: Antiproliferative assay on MDA-MB-468 cells (AlamarBlue, 96 h). It counts as cell-based. The conditions noted are these: Homo sapiens, mean value from several measurements.
The test system of data set [6] is NCl-H82 (small cell lung cancer). Briefly: Antiproliferative assay on NCl-H82 cells (AlamarBlue, 120 h). It counts as cell-based. The conditions noted are these: mean value from several measurements. (The colour change of resazurin is a common sign of viable cells or microbes.)
Data set [7] is described as follows: General cytotoxicity on primary differentiated HepaRG cells (72 h). The conditions noted are these: human, general toxicity, mean value from several measurements. It counts as cell-based. The method, boiled down:
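Test compounds spanning 200 μM to 0.2 nM were incubated for 72 hours with primary differentiated HepaRG cells. Cells had been kept one week in supplemented hepatic medium and seeded the night before at 25×10^3 per well, and viability was then measured.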

The nature of data set [8]: Passive membrane permeability through PAMPA artificial membrane, pH 7.4. It counts as in vitro ADME. The conditions noted are these: pH 7.4, 10 μmol, 20 hours at room temperature, mean of multiple measurements, read-out: PAMPA passive permeability Pe. In short, it runs like this:
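Compound at 10 μmol in 0.01 M phosphate buffer pH 7.4 placed in donor wells over lecithin-phospholipid-impregnated PVDF filter, buffer in acceptor; 20 h at room temperature. Donor and acceptor levels measured by RP-HPLC-UV; Pe (cm/s) and membrane retention R (%) calculated.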
On the technique in general: PAMPA measures passive passage across an artificial lipid membrane.

Setting [9] is: mean value from several measurements, read-out: IC50 CDK7/Cyclin H/MNAT.
Where [10] appears, read: mean value from several measurements, read-out: IC50 CDK2/Cyclin A.
[11] abbreviates: mean value from several measurements, read-out: IC50 CDK9/Cyclin K.
Setting [12] is: mean value from several measurements, read-out: IC50 CDK13/Cyclin K.

Read-outs that look alike come from different tables or passages of the source.

Chain of CDK9/Cyclin K (P50750 whole entry): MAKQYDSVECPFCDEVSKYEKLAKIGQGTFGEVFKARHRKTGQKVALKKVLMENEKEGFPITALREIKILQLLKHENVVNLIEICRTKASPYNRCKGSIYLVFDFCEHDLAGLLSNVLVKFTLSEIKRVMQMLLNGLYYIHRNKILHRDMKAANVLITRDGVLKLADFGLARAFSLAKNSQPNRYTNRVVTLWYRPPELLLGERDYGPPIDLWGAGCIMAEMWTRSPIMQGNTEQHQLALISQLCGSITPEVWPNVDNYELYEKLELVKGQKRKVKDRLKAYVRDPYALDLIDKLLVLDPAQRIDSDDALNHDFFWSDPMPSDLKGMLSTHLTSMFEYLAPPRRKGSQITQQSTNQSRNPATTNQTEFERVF
Chain of CDK9/Cyclin K (O75909 whole entry partner): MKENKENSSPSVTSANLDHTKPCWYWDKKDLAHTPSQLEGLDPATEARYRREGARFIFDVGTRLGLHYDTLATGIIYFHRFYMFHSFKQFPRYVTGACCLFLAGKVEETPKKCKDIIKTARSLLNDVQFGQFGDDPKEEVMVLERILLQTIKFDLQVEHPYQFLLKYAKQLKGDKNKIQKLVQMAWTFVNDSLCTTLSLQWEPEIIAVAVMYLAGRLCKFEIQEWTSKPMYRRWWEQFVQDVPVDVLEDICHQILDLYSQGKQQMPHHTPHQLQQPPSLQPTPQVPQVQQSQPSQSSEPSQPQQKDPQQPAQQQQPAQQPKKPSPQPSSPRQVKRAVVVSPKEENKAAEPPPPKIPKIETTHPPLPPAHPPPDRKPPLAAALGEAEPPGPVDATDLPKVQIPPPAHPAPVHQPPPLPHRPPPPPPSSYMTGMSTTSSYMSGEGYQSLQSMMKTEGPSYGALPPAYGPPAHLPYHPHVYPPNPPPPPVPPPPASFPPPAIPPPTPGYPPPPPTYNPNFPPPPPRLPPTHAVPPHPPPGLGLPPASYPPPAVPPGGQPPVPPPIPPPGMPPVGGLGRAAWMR
Chain of CDK13/Cyclin K (Q14004 whole entry): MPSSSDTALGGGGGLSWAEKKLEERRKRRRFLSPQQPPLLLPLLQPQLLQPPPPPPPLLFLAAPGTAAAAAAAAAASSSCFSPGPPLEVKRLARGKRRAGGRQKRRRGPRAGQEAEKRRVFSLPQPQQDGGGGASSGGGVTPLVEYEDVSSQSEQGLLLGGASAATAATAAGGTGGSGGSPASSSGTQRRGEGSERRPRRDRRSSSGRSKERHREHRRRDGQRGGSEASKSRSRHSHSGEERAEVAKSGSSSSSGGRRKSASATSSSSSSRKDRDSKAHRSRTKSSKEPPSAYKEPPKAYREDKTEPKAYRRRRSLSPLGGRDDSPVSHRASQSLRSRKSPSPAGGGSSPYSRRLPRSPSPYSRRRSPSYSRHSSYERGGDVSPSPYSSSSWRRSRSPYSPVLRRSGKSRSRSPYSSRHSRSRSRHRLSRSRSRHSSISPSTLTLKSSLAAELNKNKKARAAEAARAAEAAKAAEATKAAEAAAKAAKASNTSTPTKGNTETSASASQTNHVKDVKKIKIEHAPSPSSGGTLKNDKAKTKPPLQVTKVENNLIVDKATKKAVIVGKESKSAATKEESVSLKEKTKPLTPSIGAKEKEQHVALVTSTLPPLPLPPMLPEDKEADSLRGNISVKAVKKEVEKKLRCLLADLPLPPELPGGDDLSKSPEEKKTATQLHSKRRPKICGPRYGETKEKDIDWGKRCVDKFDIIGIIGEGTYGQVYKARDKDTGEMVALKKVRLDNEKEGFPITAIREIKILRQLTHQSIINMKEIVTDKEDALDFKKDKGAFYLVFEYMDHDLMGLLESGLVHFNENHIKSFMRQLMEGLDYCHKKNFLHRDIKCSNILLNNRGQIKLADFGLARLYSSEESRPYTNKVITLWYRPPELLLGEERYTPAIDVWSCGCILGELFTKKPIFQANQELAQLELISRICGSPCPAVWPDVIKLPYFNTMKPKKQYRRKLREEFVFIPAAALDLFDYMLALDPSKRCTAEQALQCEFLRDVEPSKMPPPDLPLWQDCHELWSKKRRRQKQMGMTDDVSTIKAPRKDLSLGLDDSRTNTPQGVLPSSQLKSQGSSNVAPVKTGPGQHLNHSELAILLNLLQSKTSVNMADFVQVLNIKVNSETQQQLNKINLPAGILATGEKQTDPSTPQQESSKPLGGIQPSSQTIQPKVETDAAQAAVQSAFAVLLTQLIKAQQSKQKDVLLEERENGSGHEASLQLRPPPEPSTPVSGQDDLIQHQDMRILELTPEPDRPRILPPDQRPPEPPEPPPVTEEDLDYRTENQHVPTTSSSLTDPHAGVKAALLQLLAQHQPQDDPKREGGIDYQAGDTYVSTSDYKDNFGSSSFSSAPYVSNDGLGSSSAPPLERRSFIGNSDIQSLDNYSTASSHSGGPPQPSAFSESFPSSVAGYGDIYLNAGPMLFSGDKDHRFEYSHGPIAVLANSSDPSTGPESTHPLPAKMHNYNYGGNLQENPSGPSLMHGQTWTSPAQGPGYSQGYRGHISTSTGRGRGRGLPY
Chain of CDK13/Cyclin K (O75909 whole entry partner): as the sequence (O75909 whole entry partner) above
Chain of CDK7/Cyclin H/MNAT1 (P50613 whole entry): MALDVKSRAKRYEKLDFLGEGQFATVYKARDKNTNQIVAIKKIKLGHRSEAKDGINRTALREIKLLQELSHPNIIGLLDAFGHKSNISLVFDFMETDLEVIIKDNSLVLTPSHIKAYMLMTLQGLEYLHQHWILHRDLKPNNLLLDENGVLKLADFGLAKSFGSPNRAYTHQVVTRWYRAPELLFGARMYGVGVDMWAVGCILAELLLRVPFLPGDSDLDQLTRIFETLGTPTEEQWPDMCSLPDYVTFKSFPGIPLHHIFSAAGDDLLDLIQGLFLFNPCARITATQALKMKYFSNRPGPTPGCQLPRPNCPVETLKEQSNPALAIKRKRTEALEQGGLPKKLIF
Chain of CDK7/Cyclin H/MNAT1 (P51946 whole entry partner): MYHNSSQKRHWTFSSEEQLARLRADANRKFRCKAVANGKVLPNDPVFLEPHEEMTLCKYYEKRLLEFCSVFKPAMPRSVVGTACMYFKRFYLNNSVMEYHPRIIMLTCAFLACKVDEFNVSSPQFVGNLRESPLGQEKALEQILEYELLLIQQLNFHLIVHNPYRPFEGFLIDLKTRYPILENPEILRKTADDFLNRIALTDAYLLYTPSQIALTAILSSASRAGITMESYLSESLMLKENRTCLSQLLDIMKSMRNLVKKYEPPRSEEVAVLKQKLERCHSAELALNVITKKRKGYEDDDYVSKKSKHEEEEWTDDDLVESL
Chain of CDK7/Cyclin H/MNAT1 (P51948 whole entry partner): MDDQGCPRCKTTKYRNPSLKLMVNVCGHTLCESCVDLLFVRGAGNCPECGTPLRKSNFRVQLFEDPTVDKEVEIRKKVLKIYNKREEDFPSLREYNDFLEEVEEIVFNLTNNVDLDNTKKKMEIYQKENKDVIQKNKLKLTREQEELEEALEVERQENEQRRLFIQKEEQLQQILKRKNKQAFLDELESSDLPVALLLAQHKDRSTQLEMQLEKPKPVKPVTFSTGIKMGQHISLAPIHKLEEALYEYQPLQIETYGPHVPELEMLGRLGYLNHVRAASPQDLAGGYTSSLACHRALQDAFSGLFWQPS

For `CN1CCCc2c(-c3nc(N[C@H]4CCC5(CC5)NC4)ncc3C(F)(F)F)c[nH]c2C1=O` [CDK7_1201, 3-[2-({4-azaspiro[2.5]octan-6-yl}amino)-5-(trifluoromethyl)py-rimidin-4-yl]-7-methyl-1H,4H,5H,6H,7H, 8H-pyrrolo[2,3-c]azepin-8-one], the IC50 is less than 5 nM in data set [1] (mean of multiple measurement series, ATP 10 μM, read-out: CDK7/Cyclin H/MNAT1 IC50); less than 5 nM in data set [1] (setting [9]); 4500 nM in data set [2] (mean of multiple measurement series, ATP 50 μM, read-out: CDK2/Cyclin A IC50); more than 200 nM in data set [2] (setting [10]); 112 nM in data set [3] (mean of multiple measurement series, ATP 50 μM, read-out: CDK9/Cyclin K IC50); 50 to 200 nM in data set [3] (setting [11]). Further, the IC50 in data set [4] (mean of multiple measurement series, ATP 10 μM, read-out: CDK13/Cyclin K IC50) is 65 nM; in data set [4] (setting [12]) it was 50 to 200 nM; in data set [5], less than 10 nM; in data set [6], less than 10 nM. Also, in data set [7], the half-maximal cytotoxic concentration (CC50) (usually the concentration at which the toxic effect on the cells reaches its halfway point) at 72 h fell in the range of 500 to 2000 nM. Further, the Papp at 20 h, 10 μmol in data set [8] was 5 to 10 ×10⁻⁶ cm/s.
Regarding `Cn1nnc(-c2cc(-c3nc(N[C@H]4CCCNC4)ncc3C(F)(F)F)c[nH]2)n1` [CDK7_1000, 4-[5-(2-methyl-2H-1,2,3,4-tetrazol-5-yl)-1H-pyrrol-3-yl]-N-[(3S)-piperidin-3-yl]-5-(trifluoromethyl)py-rimidin-2-amine], the IC50 in data set [1] (setting [9]) is less than 5 nM; in data set [2] (setting [10]), more than 200 nM; in data set [3] (setting [11]), 5 to 50 nM; in data set [4] (setting [12]), 5 to 50 nM; in data set [5] it was 10 to 100 nM; in data set [6] it was 10 to 100 nM. In addition, in data set [7], the half-maximal cytotoxic concentration (CC50) at 72 h lay within 100 to 500 nM. The Papp at 20 h, 10 μmol in data set [8] was less than 1 ×10⁻⁶ cm/s.
